Test results published in patent US20210121440A1, “ACNE TREATMENT” (priority 2003, published 2021).

Assays:
patients = conditions: oral administration; especially older patients having an impaired renal function; cited from earlier work
[1] = system: patients having acne papulopustolosa; assay: Clinical judgement of number of lesions and degree of severity index (Allen and Smith) in acne patients treated orally; type: in vivo, human
Description: (§1) For treating the inflammatory acne 10 patients having acne papulopustolosa (m:f 6:4, age 19±5 years) were treated orally with a selective 5-lipoxygenase inhibitor, namely with (±)-1-1.benzo[b]thien—2-ylethyl)-1-hydroxyurea (Zileuton) 4×600 mg/d p.o. for a period of three months. The number of lesions and the general degree of severity index according to Allen and […] (Allen B S, Smith J G: Various parameters for grading acne. Arch Dermatol. 1982; 118: 23-25) were clinically judged. Moreover, the surface lipids using Sebumeter® and the liver enzymes in the serum were determined at the beginning of the study, in the 2nd, 4th, 8th and 12th weeks of treatment and 2 weeks after completion of the therapy. The LTB4 detection in the blood by radio-immuno-assay and the lipid fractions in the serum by chromatography were examined at the beginning and in the 12th week of treatment. The patients were photographed at the beginning and at the end of the treatment. The degree of severity index of acne decreased continuously and dependent on the time (41±28% of the initial value in the 12th week of treatment; p<0.05). […] The degree of clinical improvement strongly correlated with the reduction of the total lipids in the sebum (p=0.0009, r^2=0.81) and the free fatty acid (p=0.0003, r^2=0.82). […] To sum up, thus first indirect proofs could be furnished for a genuine inflammatory etiology of acne.

surface lipids = assay: Surface lipids using Sebumeter; type: in vivo, human; conditions: 4×600 mg/d p.o. for three months
Description: as §1

[2] = system: total lipids and pro-inflammatory lipid fractions in the sebum; assay: Lipids and lipid fractions in the sebum by chromatography; type: in vivo, human; conditions: 12th week of treatment, 4×600 mg/d p.o.
Description: as §1

LTB4 in the blood = assay: LTB4 detection in the blood by radio-immuno-assay; type: in vivo, human; conditions: beginning vs 12th week of treatment; 4×600 mg/d p.o.
Description: as §1

[3] = system: patients having acne papulopustolosa; assay: Side-effects in treated acne patients; type: in vivo, human; conditions: 4×600 mg/d p.o. for three months; 10 patients
Description: as §1, with “of acne. […]” for “of acne.”

Row | Compound | disadvantageous effects observed in clinical tests (patients) | response of comedones ([1]; 4×600 mg/d p.o. for three months) | decrease of the number of inflammatory lesions up to ([1]; 4×600 mg/d p.o. for three months, p<0.01) [%] | degree of severity index of acne, % of the initial value ([1]; 12th week of treatment, 4×600 mg/d p.o., 10 patients, p<0.05) [%] | all examined parameters during follow-up ([1]; two-weeks' follow-up phase after completion of the therapy) | surface lipids (surface lipids) | decrease of lipoperoxides in the sebum [2] [%] | decrease of pro-inflammatory free fatty acids in the sebum [2] [%] | decrease of total lipids in the sebum ([2]; p<0.05) [%] | LTB4 in the blood (LTB4 in the blood) | subjective and objective side-effects [3]
1 | CC(C(=O)O)c1ccc2oc(-c3ccc(Cl)cc3)nc2c1 (centres unmarked) [benoxaprofen] | a photosensitivity, exzema, milii, onycholysis and a hepatotoxicity with jaundice |  |  |  |  |  |  |  |  |  | 
2 | CC(c1cc2ccccc2s1)N(O)C(N)=O (racemic) [Zileuton, (±)-1-(1-benzo[b]thien-2-ylethyl)-1-hydroxy-urea] |  | comedones did not respond | 29±24 | 41±28 | remained practically unchanged | not influenced | 26±30 | 22±18 | 35±51 | not influenced | Neither subjective nor objective side-effects were noticed
